Measurements taken from US12570638B2, “Fused imidazole derivatives as AHR antagonists” (Sail Biomedicines, Inc., priority 2020, dated 2026).

Assay: Plasma Protein Binding Determination with Ultracentrifugation Method
Assay type: in vitro ADME
Conditions: human plasma, read-out: Human plasma protein binding (% bound)
Description: The frozen plasma (stored at −80° C.) was thawed in a 37° C. water bath, followed by centrifugation at 3,220 g for 10 minutes to remove clots. The supernatant was removed into a new tube as the spun plasma. The spun plasma was pre-warmed in a 37° C. water bath for 10 minutes. The stock solutions of test compounds were diluted to 200 μM in DMSO, and then spiked into the plasma. Duplicate samples were prepared. The final concentration of compound was 1.0 μM. The final concentration of organic solvent was 0.5%. Warfarin was used as positive control in the assay. 1.0 mL of the spiked plasma was transferred to a new balance ultracentrifuge tube. Samples were incubated at 37° C., 5% CO2 for 30 minutes. After incubation, the balance ultracentrifuge tubes were centrifuged at 600,000 g for 5.5 hours at 37° C. […]
Data Analysis: All calculations were carried out using Microsoft Excel. The concentrations of test compound in plasma samples and post-ultracentrifugation plasma was determined from peak areas. The percentages of test compound bound was calculated as follows: […]

## Cn1ncnc1C(=O)Nc1ccc2nc(-c3ccccc3C(F)(F)F)[nH]c2c1 [Compound H, 1-methyl-N-(2-(2-(trifluoromethyl)phenyl)-1H-benzo[d]imidazol-6-yl)-1H-1,2,4-triazole-5-carboxamide]
  fraction unbound at 30 min, 1 μM: < 0.25
